According to PubChem BioAssay AID1549 (Sanford-Burnham Center for Chemical Genomics, 2009):
Calls of active or inactive are those of the source. How the calls were made is not given here.

These compounds were tested against Influenza A virus M2 proton channel (A/TW/4845/1999 H1N1) (assay: NMR binding screen, influenza A virus M2 proton channel, Kd (AID 1549)). Details: M2 protein.

Structure (SMILES) | Kd
Cc1ccc(S(C)(=O)=O)s1 | > 4 mM (inactive)
Nc1ncnc(NC2CCS(=O)(=O)C2)c1[N+](=O)[O-] (stereo unspecified) | > 4 mM (inactive)
O=C(O)c1cc(O)c(O)c(O)c1 | > 4 mM (inactive)
COc1ccc(-c2ccc(OC)cc2C(=O)O)cc1 | > 4 mM (inactive)
Cc1cc(C)n(-c2ccc(N)cc2)n1 | > 4 mM (inactive)
c1ccc(SCc2nc(-c3ccncc3)no2)cc1 | > 4 mM (inactive)
O=C(O)C1CN2CCC1CC2 (stereo unspecified) | > 4 mM (inactive)
NC(=O)CCn1c(=O)oc2ccccc21 | > 4 mM (inactive)
O=C1NC(=S)N/C1=C/c1ccc(O)c(Cl)c1 | > 4 mM (inactive)
Cn1nc(C(=O)NCc2cccnc2)c2ccccc2c1=O | > 4 mM (inactive)
NC(=O)C1CCN(C(=O)c2ccccc2)CC1 | > 4 mM (inactive)
C/C=C/C(=O)Nc1ccc(NC(C)=O)cc1 | > 4 mM (inactive)
O=C(O)c1ccc2snnc2c1 | > 4 mM (inactive)
COC(=O)N(c1ccccc1)P1(=S)OCCO1 | > 4 mM (inactive)
O=C(O)c1coc2c1C(=O)CCC2 | > 4 mM (inactive)
Cn1c(SCCC(=O)O)nnc1-c1cccnc1 | > 4 mM (inactive)
CCOC(=O)c1cc2ccccc2oc1=O | > 4 mM (inactive)
NC(=O)Cn1nc(-c2ccco2)ccc1=O | > 4 mM (inactive)
CN(C)C(=O)c1ccccc1-c1ccccc1 | > 4 mM (inactive)
CC(=O)NN1C(=O)/C(=C\c2ccc(O)cc2)SC1=S | > 4 mM (inactive)
Cn1nc(C(=O)NC2CCCCC2)c2ccccc2c1=O | > 4 mM (inactive)
NC(=S)NC(=O)CN1C(=O)c2ccccc2C1=O | > 4 mM (inactive)
CSc1nnc2[nH]c(=O)cc(N)n12 | > 4 mM (inactive)
Cc1cc(C(=O)N2CCN(c3ncccn3)CC2)c(C)o1 | > 4 mM (inactive)
Cc1ccc(C)n1CCN1CCNCC1 | > 4 mM (inactive)
Cc1ccc(-c2nn3c(C)nnc3s2)cc1N | > 4 mM (inactive)

Structure (SMILES) | Kd
CN1C(=O)N(C)C2NC(=O)NC21 (stereo unspecified) | > 4 mM (inactive)
O=C(O)/C=C1\NC(=O)c2ccccc21 | > 4 mM (inactive)
NC(=O)Cn1cnc2ccccc21 | > 4 mM (inactive)
Cn1c(CN2CC(c3ccccc3)CC2=O)n[nH]c1=S (stereo unspecified) | > 4 mM (inactive)
COc1ccc(S(=O)(=O)NCCO)cc1 | > 4 mM (inactive)
C=C1CSc2nc(=O)c3c(C)c(C)sc3n21 | > 4 mM (inactive)
COc1ccc2c(c1)OC/C(=C/c1ccc(OC)c(OC)c1)C2=O | > 4 mM (inactive)
CN1CCn2c1nc(N1CCCCC1)nc2=O | > 4 mM (inactive)
OCc1cccc2c1OCCO2 | > 4 mM (inactive)
Cc1nnc(SCC(=O)Nc2ccccc2)[nH]c1=O | > 4 mM (inactive)
COC(=O)c1cccc(N)c1 | > 4 mM (inactive)
NC(=O)c1ccc(SCC(=O)O)c([N+](=O)[O-])c1 | > 4 mM (inactive)
CN1CCCCC1c1ccc(-c2cccnc2)nc1 (stereo unspecified) | > 4 mM (inactive)
COC(=O)c1ccc2nsnc2c1 | > 4 mM (inactive)
NC(=O)CSc1nnc2ccc(-c3ccccn3)nn12 | > 4 mM (inactive)
Cc1cc(C)nc(N2CC(=O)N(C)C2=N)n1 | > 4 mM (inactive)
O=C(CS(=O)(=O)c1ccccc1)N1CCCCCC1 | > 4 mM (inactive)
Nc1ccc(OCc2ccccc2)cc1 | > 4 mM (inactive)
CN1C2C[C@H](OC(=O)[C@H](CO)c3ccccc3)C[C@H]1[C@@H](O)C2 | > 4 mM (inactive)
CC(=O)Nc1ccc2c(c1)CCCC2=O | > 4 mM (inactive)
Clc1ccccc1OCc1nc(-c2ccncc2)no1 | > 4 mM (inactive)
CCCNC(=O)c1cnc2n(c1=O)CCS2 | > 4 mM (inactive)
COc1ccc(-c2cc(=O)c3c(OC)c(OC)c(OC)c(OC)c3o2)cc1 | > 4 mM (inactive)
O=C(O)CCc1c[nH]c2ccccc12 | > 4 mM (inactive)
N=Nc1c(O)[nH]c2ccccc12 | > 4 mM (inactive)
